From patent US4460781A, “4-(2-Benzoylphenyl-1-pyazole and 4-(2-benzoylphenyl)-1-pyrazoline derivatives” (Hoffmann-La Roche Inc., priority 1983, dated 1984)

Columns and labels:
[1] = test system: male mice; experiment: Inclined Screen (paralyzing effects, sliding off the screen); assay type: in vivo; conditions: Mus musculus, groups of 6, at least 4 hours, maximum dose of 500 mg/kg, read-out: Inclined Screen (PD50)
Procedure: Groups of 6 male mice are given the test drug (maximum dose of 500 mg/kg) and then are left on the inclined screen at least 4 hours for observation of paralyzing effects severe enough to cause them to slide off the screen. If activity is observed, additional doses are taken until at least two are reached at which some, but not all of the animals slide off the screen. Doses at which mice fall off the screen due to toxicity or excitation are not included in the calculation of PD50.

[2] = Toxicity (LD50) (PO); conditions: in vivo
[3] = test system: Cats; experiment: Unanesthetized Cat (minimum symptoms, usually ataxia); assay type: in vivo; conditions: Felis catus, po, cats treated orally
Procedure: Cats are treated orally and observed for minimum symptoms--usually ataxia. One cat is used at a dose of 50 mg/kg. If activity is present, up to three cats/dose are used. Results are given as minimum effective dose.

[4] = test system: mice; experiment: Footshock (blocking of shock-elicited fighting in pairs of mice); assay type: in vivo; conditions: Mus musculus, pretreated 1 hour, 3 out of 3 pairs blocked from fighting, maximum of 100 mg/kg, read-out: Footshock (100% blocking dose)
Procedure: A pair of mice is confined under a one liter beaker placed on a grid which presents shock to the feet. At least 5 fighting episodes are elicited in a two-minute period. Pairs of mice are marked and pretreated 1 hour to a second shocking. Logarithmic dose intervals are utilized up to a maximum of 100 mg/kg. At the 100% blocking dose, 3 out of 3 pairs must be blocked from fighting.

Structure (SMILES)	ED50 [1] [mg/kg]	LD50 [2] [mg/kg]	minimal effective dose [3] [mg/kg]	ED100 [4] [mg/kg]
Cc1[nH]nc2c1-c1ccc([N+](=O)[O-])cc1C(c1ccccc1Cl)=NC2 [6-(2-Chlorophenyl)-3-methyl-8-nitro-2H,4H-pyrazolo[3,4-d][2]benzazepine]	400	> 1000	250	–
OCCn1cc2c(n1)CN=C(c1ccccc1)c1cc(Cl)ccc1-2 [8-Chloro-2-(2-hydroxyethyl)-6-phenyl-2H,4H-pyrazolo[3,4-d][2]benzazepine]	40	750	20	100
Clc1ccc2c(c1)C(c1ccccc1Cl)=NCc1n[nH]cc1-2 [8-Chloro-6-(2-chlorophenyl)-2H,4H-pyrazolo[3,4-d][2]benzazepine]	143	800	10	25
Fc1ccccc1C1=NCc2n[nH]cc2-c2ccc(Cl)cc21 [8-Chloro-6-(2-fluorophenyl)-2H,4H-pyrazolo[3,4-d][2]benzazepine]	66	760	2	25
CNC(=O)n1cc2c(n1)CN=C(c1ccccc1)c1cc(Cl)ccc1-2 [8-Chloro-N-methyl-6-phenyl-2H,4H-pyrazolo[3,4-d][2]benzazepine-2-carboxamide]	400	–	20	25
